{"source": "ChEMBL document CHEMBL5260850", "about": "“The exploration of aza-quinolines as hematopoietic prostaglandin D synthase (H-PGDS) inhibitors with low brain exposure” (Bioorg Med Chem, 2020)", "key": {"[1]": {"biological_target": "5-hydroxytryptamine receptor 3A (Homo sapiens) (UniProt P46098)", "conditions": "dose <= 10000.0 nM", "description": "Inhibition of 5-HT3 receptor (unknown origin) upto 10000 nM"}, "[2]": {"test_system": "Mus musculus", "assay": "Anti-inflammatory activity against C57BL6/N mouse assessed as EC50 required for reduction in LPS-induced PGD2 level in plasma administered orally with compound and 1 hr later treated with LPS and measured after 30 mins by LC-MS/MS analysis", "assay_type": "functional, organism-based", "conditions": "C57BL/6N"}, "[3]": {"biological_target": "Aryl hydrocarbon receptor (Homo sapiens, UniProt P35869)", "assay": "Inhibition of AhR (unknown origin) upto 10000 nM", "conditions": "10 µM"}, "[4]": {"assay": "AUC in dog at 30 mg/kg/day, po QD for 4 days", "assay_type": "ADME, organism-based, Canis lupus familiaris", "design": "dose 30 mg/kg/day, time 4 day, route po", "conditions": "in vivo"}, "[5]": {"biological_target": "Phosphatidylinositol 4,5-bisphosphate 3-kinase catalytic subunit gamma isoform (Homo sapiens) (UniProt P48736)", "conditions": "dose <= 10000.0 nM", "description": "Inhibition of PI3K-gamma (unknown origin) upto 10000 nM"}, "[6]": {"assay": "CNS toxicity in Wistar Han rat at 10 to 100 mg/kg/day, po QD for 7 days", "assay_type": "organism-based", "conditions": "in vivo, 168 h, dose 10-100 mg/kg/day, time 7 day"}, "[7]": {"assay": "Clearance in dog at 0.5 mg/kg, iv", "assay_type": "ADME, organism-based, Canis lupus familiaris", "conditions": "in vivo"}, "[8]": {"assay": "Toxicity in Wistar Han rat assessed as cortical hypertrophy in adrenal gland at 100 mg/kg/day, po administered QD for 7 days by microscopic analysis", "assay_type": "organism-based", "conditions": "in vivo, 168 h, time 7 day"}, "[9]": {"assay": "Free AUC (0 to last) in eccentric contraction-induced muscle injury C57BL/6N mouse model administered orally for 10 mins prior to unilateral eccentric contraction and QD for 16 days thereafter", "assay_type": "ADME", "conditions": "in vivo, po, 384 h, time 16 day"}, "[10]": {"assay": "Volume of distribution at steady state in mouse at 1 mg/kg, iv", "assay_type": "ADME, organism-based", "conditions": "in vivo, read-out: Vdss"}, "[11]": {"biological_target": "cGMP-inhibited 3',5'-cyclic phosphodiesterase 3A (Homo sapiens) (UniProt Q14432)", "sequence (Q14432 whole entry)": "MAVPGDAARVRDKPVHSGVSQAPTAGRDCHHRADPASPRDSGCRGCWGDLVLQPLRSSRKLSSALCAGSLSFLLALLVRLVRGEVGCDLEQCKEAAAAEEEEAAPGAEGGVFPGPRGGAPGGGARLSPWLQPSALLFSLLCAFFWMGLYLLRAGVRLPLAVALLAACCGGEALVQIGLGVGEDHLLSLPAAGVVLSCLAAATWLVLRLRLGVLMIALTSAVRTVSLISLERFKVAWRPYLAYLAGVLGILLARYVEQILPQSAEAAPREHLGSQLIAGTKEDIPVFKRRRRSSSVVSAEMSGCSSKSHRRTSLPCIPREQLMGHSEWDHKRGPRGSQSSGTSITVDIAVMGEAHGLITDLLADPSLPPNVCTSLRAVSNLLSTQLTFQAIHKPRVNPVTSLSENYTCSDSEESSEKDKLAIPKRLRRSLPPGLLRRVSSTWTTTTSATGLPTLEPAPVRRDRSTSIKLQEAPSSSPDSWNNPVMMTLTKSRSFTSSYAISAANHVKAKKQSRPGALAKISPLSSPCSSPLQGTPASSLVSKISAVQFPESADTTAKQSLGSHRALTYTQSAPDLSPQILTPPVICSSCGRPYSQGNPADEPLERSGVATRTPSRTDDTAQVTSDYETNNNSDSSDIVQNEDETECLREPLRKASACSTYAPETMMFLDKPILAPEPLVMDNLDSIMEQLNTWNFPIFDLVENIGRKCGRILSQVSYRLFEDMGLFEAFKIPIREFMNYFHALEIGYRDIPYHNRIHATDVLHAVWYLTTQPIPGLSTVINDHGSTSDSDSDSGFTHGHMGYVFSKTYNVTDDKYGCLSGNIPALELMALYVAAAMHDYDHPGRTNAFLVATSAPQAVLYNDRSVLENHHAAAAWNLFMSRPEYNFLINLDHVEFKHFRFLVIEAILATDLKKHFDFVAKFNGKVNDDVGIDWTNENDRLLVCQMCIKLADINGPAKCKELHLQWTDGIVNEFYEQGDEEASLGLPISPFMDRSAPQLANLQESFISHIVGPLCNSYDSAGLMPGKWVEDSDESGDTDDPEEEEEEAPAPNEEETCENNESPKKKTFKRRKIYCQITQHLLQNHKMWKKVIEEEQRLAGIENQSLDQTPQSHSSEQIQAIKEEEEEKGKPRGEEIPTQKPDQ", "conditions": "dose <= 10000.0 nM", "description": "Inhibition of PDE3A (unknown origin) upto 10000 nM"}, "[12]": {"biological_target": "Aurora kinase B (Homo sapiens) (UniProt Q96GD4)", "sequence (Q96GD4 whole entry)": "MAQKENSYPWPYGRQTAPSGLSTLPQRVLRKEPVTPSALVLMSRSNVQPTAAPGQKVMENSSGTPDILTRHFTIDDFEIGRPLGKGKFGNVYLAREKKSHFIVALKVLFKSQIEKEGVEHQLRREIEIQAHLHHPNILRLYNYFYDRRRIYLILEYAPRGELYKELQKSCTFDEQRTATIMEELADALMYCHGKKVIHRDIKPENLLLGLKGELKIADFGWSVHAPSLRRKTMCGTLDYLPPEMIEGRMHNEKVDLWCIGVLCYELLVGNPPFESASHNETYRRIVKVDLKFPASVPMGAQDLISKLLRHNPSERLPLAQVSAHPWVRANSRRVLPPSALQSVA", "conditions": "dose <= 10000.0 nM", "description": "Inhibition of Aurora B kinase (unknown origin) upto 10000 nM"}, "[13]": {"assay": "Toxicity in dog assessed as discoloration in small intestine and oesophagus at 75 mg/kg/day, po QD for 4 days by macroscopic analysis", "assay_type": "organism-based, Canis lupus familiaris", "conditions": "in vivo, 96 h, time 4 day"}, "[14]": {"assay": "AUC (0 to last) in eccentric contraction-induced muscle injury C57BL/6N mouse model administered orally for 10 mins prior to unilateral eccentric contraction and QD for 16 days thereafter", "assay_type": "ADME", "design": "time 16 day, route po", "conditions": "in vivo, po"}, "[15]": {"biological_target": "Cannabinoid receptor 1 (Homo sapiens) (UniProt P21554)", "conditions": "dose <= 10000.0 nM", "description": "Inhibition of CB1 receptor (unknown origin) upto 10000 nM"}, "[16]": {"assay": "Cmax in eccentric contraction-induced muscle injury C57BL/6N mouse model administered orally for 10 mins prior to unilateral eccentric contraction and QD for 16 days thereafter", "assay_type": "ADME", "design": "time 16 day, route po", "conditions": "in vivo, po"}, "[17]": {"biological_target": "D(2) dopamine receptor (Homo sapiens) (UniProt P14416)", "sequence (P14416 whole entry)": "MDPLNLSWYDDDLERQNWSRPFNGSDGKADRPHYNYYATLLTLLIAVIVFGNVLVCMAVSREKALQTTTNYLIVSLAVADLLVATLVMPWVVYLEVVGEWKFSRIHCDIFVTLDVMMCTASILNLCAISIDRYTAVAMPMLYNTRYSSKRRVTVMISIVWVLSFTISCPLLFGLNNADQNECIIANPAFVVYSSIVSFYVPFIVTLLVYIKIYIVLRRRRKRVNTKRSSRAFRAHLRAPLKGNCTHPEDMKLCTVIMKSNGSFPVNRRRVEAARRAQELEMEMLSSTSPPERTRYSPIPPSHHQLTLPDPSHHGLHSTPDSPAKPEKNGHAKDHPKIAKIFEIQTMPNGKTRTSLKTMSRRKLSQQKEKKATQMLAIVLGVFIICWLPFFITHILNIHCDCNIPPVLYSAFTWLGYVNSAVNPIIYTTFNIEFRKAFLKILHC", "conditions": "dose <= 10000.0 nM", "description": "Inhibition of dopamine D2 receptor (unknown origin) upto 10000 nM"}, "[18]": {"assay": "Toxicity in dog assessed as decrease in body temperature at 75 mg/kg/day, po QD for 4 days", "assay_type": "organism-based, Canis lupus familiaris", "conditions": "in vivo, 96 h, time 4 day"}, "[19]": {"assay": "Selectivity ratio of EC50 for inhibition of H-PGDS in rat RBL cells assessed as reduction in A23187-induced PGD2 production to EC50 for anti-inflammatory activity against po dosed C57BL6/N mouse assessed as reduction in LPS-induced PGD2 level in plasma"}, "[20]": {"test_system": "Mus musculus", "assay": "Anti-inflammatory activity against C57BL6/N mouse assessed as reduction in LPS-induced PGD2 level in skeletal muscle administered orally with compound and 1 hr later treated with LPS and measured after 30 mins by LC-MS/MS analysis", "assay_type": "functional", "conditions": "route po, time 1.5 hrs"}, "[21]": {"assay": "Cmax in dog at 10 mg/kg/day, po QD for 4 days", "assay_type": "ADME, organism-based, Canis lupus familiaris", "design": "dose 10 mg/kg/day, time 4 day, route po", "conditions": "in vivo"}, "[22]": {"assay": "Volume of distribution at steady state in rat at 0.4 mg/kg, iv", "assay_type": "ADME, organism-based", "conditions": "in vivo, read-out: Vdss"}, "[23]": {"assay": "Genotoxicity in Salmonella typhimurium in absence of metabolic activation by Ames test", "assay_type": "toxicity", "conditions": "salmonella enterica subsp. enterica serovar typhimurium"}, "[24]": {"biological_target": "Prostaglandin-H2 D-isomerase (Homo sapiens, UniProt P41222)", "sequence (P41222 whole entry)": "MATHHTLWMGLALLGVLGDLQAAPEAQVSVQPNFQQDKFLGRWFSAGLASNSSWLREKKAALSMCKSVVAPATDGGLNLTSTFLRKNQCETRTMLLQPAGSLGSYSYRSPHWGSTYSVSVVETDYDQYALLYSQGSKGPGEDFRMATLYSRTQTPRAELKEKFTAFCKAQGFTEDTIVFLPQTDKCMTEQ", "assay": "Inhibition of L-PGDS (unknown origin)"}, "[25]": {"biological_target": "T1, Hematopoietic prostaglandin D synthase (Homo sapiens, UniProt O60760)", "T1 sequence (O60760 whole entry)": "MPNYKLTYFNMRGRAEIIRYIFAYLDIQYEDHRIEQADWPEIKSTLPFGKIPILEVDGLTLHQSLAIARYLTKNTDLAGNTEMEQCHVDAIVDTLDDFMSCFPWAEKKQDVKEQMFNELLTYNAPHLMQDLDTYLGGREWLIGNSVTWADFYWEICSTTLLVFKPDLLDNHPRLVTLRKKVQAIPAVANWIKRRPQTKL", "assay": "Inhibition of human H-PGDS expressed in Escherichia coli BL21 DE3 cells assessed as reduction in PGD2 production using PGH2 as substrate by RapidFire High Throughput Mass spectrometry"}, "[26]": {"assay": "Terminal half life in mouse at 1 mg/kg, iv", "assay_type": "ADME, organism-based", "conditions": "in vivo, read-out: beta t1/2 (converted)"}, "[27]": {"assay": "Toxicity in C57BL/6N mouse assessed as seizures administered orally for 10 mins prior to unilateral eccentric contraction and QD for 43 days thereafter", "conditions": "in vivo, po, 1032 h, time 43 day"}, "[28]": {"assay": "Clearance in mouse at 1 mg/kg, iv", "assay_type": "ADME, organism-based", "conditions": "in vivo"}, "[29]": {"assay": "Ratio of drug level in muscle to plasma in C57BL/6N mouse administered orally for 10 mins prior to unilateral eccentric contraction and QD for 43 days thereafter", "assay_type": "toxicity, cell-free, Muscle tissue/plasma", "conditions": "route po, time 43 day"}, "[30]": {"assay": "Free Cmax in mdx mouse administered orally 10 mins prior to unilateral eccentric contraction and QD for 43 days thereafter", "assay_type": "ADME", "conditions": "in vivo, po, 1032 h, time 43 day"}, "[31]": {"biological_target": "GABA-A receptor; anion channel (Homo sapiens) (UniProt P14867+P47870+P18507+P28472+P48169+Q99928+Q9UN88+P34903+O00591+O14764+Q8N1C3+P18505+P78334+P47869+P31644+Q16445)", "conditions": "dose <= 10000.0 nM", "description": "Inhibition of GABAA receptor (unknown origin) upto 10000 nM"}, "[32]": {"assay": "Oral bioavailability in dog at 1 mg/kg", "assay_type": "ADME, organism-based, Canis lupus familiaris", "conditions": "in vivo"}, "[33]": {"biological_target": "Voltage-dependent L-type calcium channel subunit alpha-1C (Homo sapiens, UniProt Q13936)", "sequence (Q13936 whole entry)": "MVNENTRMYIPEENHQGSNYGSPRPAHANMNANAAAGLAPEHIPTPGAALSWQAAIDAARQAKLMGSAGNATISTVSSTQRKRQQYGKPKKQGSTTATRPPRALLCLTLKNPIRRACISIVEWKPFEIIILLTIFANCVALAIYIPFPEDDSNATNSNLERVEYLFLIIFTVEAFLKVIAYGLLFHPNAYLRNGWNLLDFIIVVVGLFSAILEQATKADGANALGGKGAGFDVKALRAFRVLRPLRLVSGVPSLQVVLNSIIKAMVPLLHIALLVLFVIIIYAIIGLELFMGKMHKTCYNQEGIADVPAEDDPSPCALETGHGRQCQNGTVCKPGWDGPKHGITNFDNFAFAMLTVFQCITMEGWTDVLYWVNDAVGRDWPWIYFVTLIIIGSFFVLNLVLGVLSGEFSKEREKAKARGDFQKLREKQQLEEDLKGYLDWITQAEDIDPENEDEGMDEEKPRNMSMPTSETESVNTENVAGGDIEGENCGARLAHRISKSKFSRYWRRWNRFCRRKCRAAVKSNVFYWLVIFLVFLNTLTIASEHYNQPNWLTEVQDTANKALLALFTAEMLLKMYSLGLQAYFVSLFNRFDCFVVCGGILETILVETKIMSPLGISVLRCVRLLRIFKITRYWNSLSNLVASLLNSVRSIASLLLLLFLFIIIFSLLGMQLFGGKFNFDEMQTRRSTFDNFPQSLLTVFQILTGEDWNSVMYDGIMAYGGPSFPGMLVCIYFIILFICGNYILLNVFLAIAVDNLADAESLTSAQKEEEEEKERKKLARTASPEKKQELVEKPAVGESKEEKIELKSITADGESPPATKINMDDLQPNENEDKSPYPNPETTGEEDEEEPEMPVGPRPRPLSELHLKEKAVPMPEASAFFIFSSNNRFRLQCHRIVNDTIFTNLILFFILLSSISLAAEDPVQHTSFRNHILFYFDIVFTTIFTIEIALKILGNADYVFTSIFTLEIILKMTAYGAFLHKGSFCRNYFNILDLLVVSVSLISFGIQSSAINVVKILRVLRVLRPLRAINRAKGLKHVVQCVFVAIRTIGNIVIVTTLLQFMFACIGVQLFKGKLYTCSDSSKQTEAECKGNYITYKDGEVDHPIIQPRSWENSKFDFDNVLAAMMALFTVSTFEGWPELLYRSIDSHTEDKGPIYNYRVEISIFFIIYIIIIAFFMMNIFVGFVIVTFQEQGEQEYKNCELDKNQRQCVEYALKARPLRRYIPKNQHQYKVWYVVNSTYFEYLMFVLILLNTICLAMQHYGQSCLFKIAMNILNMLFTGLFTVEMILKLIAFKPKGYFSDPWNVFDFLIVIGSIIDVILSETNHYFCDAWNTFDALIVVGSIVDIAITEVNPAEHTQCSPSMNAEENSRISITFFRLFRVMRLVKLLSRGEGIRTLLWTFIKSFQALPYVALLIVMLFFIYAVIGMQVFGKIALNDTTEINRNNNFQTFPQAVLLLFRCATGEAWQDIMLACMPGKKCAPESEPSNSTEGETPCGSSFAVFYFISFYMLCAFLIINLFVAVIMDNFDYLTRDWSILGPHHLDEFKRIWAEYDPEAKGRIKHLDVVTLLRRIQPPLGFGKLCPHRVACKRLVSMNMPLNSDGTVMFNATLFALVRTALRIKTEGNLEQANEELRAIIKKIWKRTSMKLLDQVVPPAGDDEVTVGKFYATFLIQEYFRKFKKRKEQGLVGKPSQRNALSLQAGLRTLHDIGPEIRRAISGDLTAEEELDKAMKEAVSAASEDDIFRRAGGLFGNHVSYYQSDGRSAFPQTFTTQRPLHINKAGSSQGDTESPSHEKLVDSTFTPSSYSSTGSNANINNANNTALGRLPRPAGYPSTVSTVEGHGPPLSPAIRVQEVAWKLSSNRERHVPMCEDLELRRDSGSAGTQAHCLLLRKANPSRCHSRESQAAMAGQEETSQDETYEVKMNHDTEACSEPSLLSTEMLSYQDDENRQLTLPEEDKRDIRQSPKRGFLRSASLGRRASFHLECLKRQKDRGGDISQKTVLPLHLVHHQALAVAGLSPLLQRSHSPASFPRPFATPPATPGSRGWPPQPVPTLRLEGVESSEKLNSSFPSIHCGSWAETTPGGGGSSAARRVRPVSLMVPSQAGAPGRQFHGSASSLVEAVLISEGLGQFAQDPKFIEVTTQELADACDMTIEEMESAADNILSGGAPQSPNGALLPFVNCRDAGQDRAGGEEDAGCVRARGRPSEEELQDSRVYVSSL", "assay": "Inhibition of Cav1.2 channel (unknown origin) upto 10000 nM", "conditions": "10 µM"}, "[34]": {"biological_target": "Voltage-gated inwardly rectifying potassium channel KCNH2 (Homo sapiens, UniProt Q12809)", "assay": "Inhibition of hERG"}, "[35]": {"biological_target": "Muscarinic acetylcholine receptor M2 (Homo sapiens) (UniProt P08172)", "sequence (P08172 whole entry)": "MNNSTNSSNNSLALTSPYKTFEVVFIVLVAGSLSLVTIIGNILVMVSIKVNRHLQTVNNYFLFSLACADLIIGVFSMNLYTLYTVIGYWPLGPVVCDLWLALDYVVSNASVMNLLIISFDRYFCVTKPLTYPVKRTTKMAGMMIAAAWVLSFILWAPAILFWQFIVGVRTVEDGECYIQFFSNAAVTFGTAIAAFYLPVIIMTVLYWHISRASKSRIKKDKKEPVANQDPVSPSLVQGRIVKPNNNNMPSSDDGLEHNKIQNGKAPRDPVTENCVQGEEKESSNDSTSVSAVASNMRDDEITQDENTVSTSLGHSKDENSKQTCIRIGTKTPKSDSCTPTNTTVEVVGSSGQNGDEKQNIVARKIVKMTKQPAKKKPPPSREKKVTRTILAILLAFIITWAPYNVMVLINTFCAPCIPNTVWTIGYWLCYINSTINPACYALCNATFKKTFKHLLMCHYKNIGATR", "conditions": "dose <= 10000.0 nM", "description": "Inhibition of muscarinic M2 receptor (unknown origin) upto 10000 nM"}, "[36]": {"assay": "Ratio of drug level in brain to blood in mouse at 1 mg/kg, iv", "assay_type": "ADME, organism-based", "conditions": "read-out: BBR"}, "[37]": {"assay": "Toxicity in Wistar Han rat assessed as tolerance at 30 mg/kg/day, po administered QD for 7 days", "assay_type": "organism-based", "conditions": "in vivo, 168 h, time 7 day"}, "[38]": {"assay": "Toxicity in dog assessed as tolerance upto 30 mg/kg/day, po QD for 4 days", "assay_type": "organism-based, Canis lupus familiaris", "conditions": "in vivo, 96 h, time 4 day"}, "[39]": {"biological_target": "Alpha-2C adrenergic receptor (Homo sapiens) (UniProt P18825)", "conditions": "dose <= 10000.0 nM", "description": "Inhibition of alpha2C adrenergic receptor (unknown origin) upto 10000 nM"}, "[40]": {"assay": "Cmax in Wistar Han rat at 100 mg/kg/day, po QD for 7 days", "assay_type": "ADME, organism-based", "design": "dose 100 mg/kg/day, time 7 day, route po", "conditions": "in vivo"}, "[41]": {"biological_target": "T1, Hematopoietic prostaglandin D synthase", "assay": "Binding affinity to human H-PGDS expressed in Escherichia coli BL21 DE3 cells assessed as equilibrium dissociation constant by measuring changes in intrinsic tryptophan fluorescence in presence of glutathione by fluorescence based analysis"}, "[42]": {"biological_target": "Sodium channel protein type 5 subunit alpha (Homo sapiens, UniProt Q14524)", "assay": "Inhibition of Nav1.5 channel (unknown origin) upto 10000 nM", "conditions": "10 µM"}}, "note": "Activity calls are given as the source filed them. No cut-off for these calls is given here."}
{"smiles": "CC(C)(O)[C@H]1CC[C@H](NC(=O)c2cnc3nc(C4CC4)ccc3c2)CC1", "values": [{"measurement": "inhibition", "setting": "[1]", "result": "inactive"}, {"measurement": "EC50", "setting": "[2]", "result": 2.6, "unit": "nM"}, {"measurement": "inhibition (INH)", "setting": "[3]", "result": "Not Active"}, {"measurement": "AUC at 96 h", "setting": "[4]", "result": 430000, "unit": "ng·h/mL"}, {"measurement": "inhibition", "setting": "[5]", "result": "inactive"}, {"measurement": "Activity", "setting": "[6]", "result": "Non-Toxic"}, {"measurement": "clearance", "setting": "[7]", "result": 1.9, "unit": "mL/min/kg"}, {"measurement": "Activity", "setting": "[8]", "result": "Toxic"}, {"measurement": "fAUClast", "setting": "[9]", "result": 1200, "unit": "ng·h/mL"}, {"measurement": "Vd", "setting": "[10]", "result": 1.6, "unit": "L/kg"}, {"measurement": "inhibition", "setting": "[11]", "result": "inactive"}, {"measurement": "inhibition", "setting": "[12]", "result": "inactive"}, {"measurement": "Activity", "setting": "[13]", "result": "Toxic"}, {"measurement": "AUC(0-t) at 384 h", "setting": "[14]", "result": 5300, "unit": "ng·h/mL"}, {"measurement": "inhibition", "setting": "[15]", "result": "inactive"}, {"measurement": "Cmax", "setting": "[16]", "result": 1700, "unit": "ng/mL"}, {"measurement": "inhibition", "setting": "[17]", "result": "inactive"}, {"measurement": "Activity", "setting": "[18]", "result": "Toxic"}, {"measurement": "Ratio EC50", "setting": "[19]", "result": 10}, {"measurement": "ED50", "setting": "[20]", "result": 0.0138, "unit": "mg/kg"}, {"measurement": "Cmax", "setting": "[21]", "result": 13000, "unit": "ng/mL"}, {"measurement": "Vd", "setting": "[22]", "result": 1.6, "unit": "L/kg"}, {"measurement": "Activity", "setting": "[23]", "result": "Non-Toxic"}, {"measurement": "IC50", "setting": "[24]", "result": "> 10000", "unit": "nM"}, {"measurement": "IC50", "setting": "[25]", "result": 9.4, "unit": "nM"}, {"measurement": "half-life", "setting": "[26]", "result": 2.9, "unit": "h"}, {"measurement": "Activity", "setting": "[27]", "result": "Non-Toxic"}, {"measurement": "clearance", "setting": "[28]", "result": 9, "unit": "mL/min/kg"}, {"measurement": "Kp at 1032 h", "setting": "[29]", "result": 0.56}, {"measurement": "fCmax", "setting": "[30]", "result": 49, "unit": "ng/mL"}, {"measurement": "inhibition", "setting": "[31]", "result": "inactive"}, {"measurement": "bioavailability", "setting": "[32]", "result": 92, "unit": "%"}, {"measurement": "inhibition (INH)", "setting": "[33]", "result": "Not Active"}, {"measurement": "IC50", "setting": "[34]", "result": "> 80000", "unit": "nM"}, {"measurement": "inhibition", "setting": "[35]", "result": "inactive"}, {"measurement": "Kp", "setting": "[36]", "result": 0.06}, {"measurement": "Activity", "setting": "[37]", "result": "Non-Toxic"}, {"measurement": "Activity", "setting": "[38]", "result": "Non-Toxic"}, {"measurement": "inhibition", "setting": "[39]", "result": "inactive"}, {"measurement": "Cmax", "setting": "[40]", "result": 57000, "unit": "ng/mL"}, {"measurement": "Kd", "setting": "[41]", "result": 0.24, "unit": "nM"}, {"measurement": "inhibition (INH)", "setting": "[42]", "result": "Not Active"}]}
